Test [1] concerns Jurkat leukemia cells. Briefly: Jurkat leukemia cell death, Annexin V/propidium iodide flow cytometry. Particulars: for cells killed: one day treatment. It counts as cell-based. The protocol:
The following assay was used to test the ability of individual compounds from the TPI 1396 and TPI 1391 libraries to induce apoptosis of cultured tumor cell lines. Each of the compounds listed in Table IX was individually added to Jurkat leukemia cells (6.25×10^5 cells/mL) in RPMI containing 2.5% FBS at various concentrations for 20 hours. After incubation, cells were washed and stained with FITC-conjugated Annexin V antibody and propidium iodide (Biovision; Mountain View, Calif.). Cells were incubated for 20 minutes at room temperature in the dark and fluorescence was measured by flow cytometry (FACScan, Immunocytometry system; Becton-Dickinson; San Jose, Calif.). Cells staining positive for Annexin V were deemed non-viable.
The TPI I396-34 and TPI 1391-28 compounds were further tested as set forth below.
(In general: A flow cytometer gives signals particle by particle.)

The test system of test [2] is HCT-116 colon cancer cells. Briefly: HCT-116 colon cancer xenograft in Balb/C nu-/nu- mice. Particulars: 30 mg/kg i.p. on days 6, 7 and 8. It is filed as in vivo. The protocol:
Additional experiments were performed using a different tumor xenograft model. HCT-116 colon cancer cells (2.5 million) were injected subcutaneously in the flanks of female Balb/C nu-/nu-mice. […] Tumor volume was measured by external calipers at least twice weekly for 19 days (see FIG. 32c). On day 19, the mice were sacrificed and the tumors were excised and weighed.

Each structure is given as a SMILES string. “Also recorded” adds a separate entry of the source. Where two headings read alike, the source gives them in different places.

For orientation: EC50 means the concentration needed to bring the measured effect to its halfway point. Regarding `COc1ccc(CCN2CCC[C@@H]2CN(C(=O)Nc2ccccc2)[C@@H](CNC(=O)Nc2ccccc2)CC2CCCCC2)cc1` [TPI 1396-34], the cells killed result in test [1] (5 μM) was “about 75%”; in test [1] (8 μM), about 85%. The “time to maximum killing” value in test [1] (10 µM) is listed as “about 24 hours”. Moreover, the cytotoxicity at 1 µM in test [1] (Homo sapiens, Jurkat, 20 h, 1 μM, 20 hours, read-out: % nonviable cells) turned out to be 13%. Further, the cytotoxicity at 5 µM in test [1] (Homo sapiens, Jurkat, 20 h, 5 μM (first column headed 5), 20 hours, read-out: % nonviable cells) was found to be 73%; in test [1] (Homo sapiens, Jurkat, 20 h, 5 μM (second column headed 5), 20 hours, read-out: % nonviable cells) it was 51%. Moreover, in test [1] (Homo sapiens, Jurkat, 20 h, 10 μM, 20 hours, read-out: % nonviable cells), the cytotoxicity at 10 µM was found to be 62%. In addition, in test [1] (Homo sapiens, Jurkat, 20 h, 25 μM, 20 hours, read-out: % nonviable cells), the cytotoxicity at 25 µM was found to be 83%. Further, in test [1] (Homo sapiens, Jurkat, 20 h, 50 μM, 20 hours, read-out: % nonviable cells), the cytotoxicity at 50 µM was found to be 85%. For the same molecule, in test [1] (Homo sapiens, Jurkat, 24 h, one-day exposure, read-out: EC50 for killing Jurkat leukemia cells), the half-maximal effective concentration (EC50) was about 6.5 µM. Besides, the “tumor size / growth, HCT116 xenograft” value in test [2] was “tumor size was reduced; also recorded: significantly slowed the rate of growth”.

The values above are taken from patent US20060258581A1, “Methods and composition for derepressions of IAP-inhibited caspase” (priority 2001, published 2006).
